# Like-named read-outs stand apart in the source and are kept apart here.
# Biological target: USP7 (Homo sapiens (Human), UniProt Q93009)
# Experiment: USP7 fluorescence polarisation (FP) biochemical assay, ubiquitin-Lys-TAMRA substrate
# Outline: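 Full-length His6-USP7 (2.5 nM) incubated ± inhibitor (8-point dilutions, 200 to 0.1 μM before addition) in 50 mM HEPES pH 7.2, 150 mM NaCl, 0.5 mM EDTA, 5 mM DTT, 0.05% BSA, 0.05% CHAPS. Ubiquitin-Lys-TAMRA cleavage followed by FP (ex 530/em 575 nm) every 15 min for 1.5 h; normalised to no-compound control.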
# [1] = Table 4, biochemical assay, average of at least duplicate experiments, read-out: USP7 IC50
# [2] = USP7 IC50, Table 4, biochemical assay, average of at least duplicate experiments
# Sequence of USP7 (Q93009 whole entry): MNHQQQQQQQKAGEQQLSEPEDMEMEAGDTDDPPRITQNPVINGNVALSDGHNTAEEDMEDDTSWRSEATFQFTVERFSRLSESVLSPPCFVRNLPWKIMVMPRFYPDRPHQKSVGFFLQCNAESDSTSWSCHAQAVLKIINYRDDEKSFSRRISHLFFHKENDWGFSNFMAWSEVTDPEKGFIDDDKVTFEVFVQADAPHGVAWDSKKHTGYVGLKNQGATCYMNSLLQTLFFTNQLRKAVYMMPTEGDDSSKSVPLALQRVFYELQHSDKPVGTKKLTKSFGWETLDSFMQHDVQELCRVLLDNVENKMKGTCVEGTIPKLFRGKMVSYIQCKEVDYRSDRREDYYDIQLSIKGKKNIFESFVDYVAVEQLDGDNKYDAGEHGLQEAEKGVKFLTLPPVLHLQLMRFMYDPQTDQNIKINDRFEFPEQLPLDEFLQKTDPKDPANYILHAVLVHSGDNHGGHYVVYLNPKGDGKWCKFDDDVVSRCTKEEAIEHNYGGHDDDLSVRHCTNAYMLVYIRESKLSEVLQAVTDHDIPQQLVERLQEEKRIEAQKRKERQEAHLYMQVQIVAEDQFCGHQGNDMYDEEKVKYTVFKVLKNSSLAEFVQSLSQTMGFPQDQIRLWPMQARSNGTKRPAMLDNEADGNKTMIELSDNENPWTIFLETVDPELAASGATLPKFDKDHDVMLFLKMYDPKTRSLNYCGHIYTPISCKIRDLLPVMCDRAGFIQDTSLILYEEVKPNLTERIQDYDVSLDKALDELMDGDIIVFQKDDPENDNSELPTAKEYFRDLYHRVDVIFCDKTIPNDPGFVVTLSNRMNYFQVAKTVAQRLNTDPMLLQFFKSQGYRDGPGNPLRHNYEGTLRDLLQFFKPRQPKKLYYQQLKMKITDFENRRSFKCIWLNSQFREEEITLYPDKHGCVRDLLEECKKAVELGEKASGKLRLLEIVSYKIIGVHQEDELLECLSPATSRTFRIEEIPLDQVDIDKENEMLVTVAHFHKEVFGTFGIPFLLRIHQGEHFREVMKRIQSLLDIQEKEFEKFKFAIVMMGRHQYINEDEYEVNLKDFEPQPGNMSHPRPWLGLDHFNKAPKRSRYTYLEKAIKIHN
IC50 [1] [µM],SMILES,also measured
< 0.25,"CN(C)Cc1ccc(-c2c3ncn(CC4(O)CCN(C(=O)C[C@H](c5ccccc5)C(F)(F)F)CC4)c(=O)c3nn2C)cc1 [Example 79, (R)-3-(4-((Dimethylamino)methyl)phenyl)-6-((4-hydroxy-1-(4,4,4-trifluoro-3-phenylbutanoyl)piperidin-4-yl)methyl)-2-methyl-2H-pyrazolo[4,3-d]pyrimidin-7(6H)-one]",
< 0.25,"Cn1nc2c(=O)n(CC3(O)CCN(C(=O)C[C@H](c4ccccc4)C(F)F)CC3)cnc2c1-c1ccc(CN)cc1 [Example 80, (R)-3-(4-(Aminomethyl)phenyl)-6-((1-(4,4-difluoro-3-phenylbutanoyl)-4-hydroxypiperidin-4-yl)methyl)-2-methyl-2H-pyrazolo[4,3-d]pyrimidin-7(6H)-one]",
1 to 200,"CC(C)c1cc(=O)n(CC2(O)CCN(C(=O)C[C@@H](C)c3ccccc3)CC2)cn1 [Example 81, (R)-3-((4-Hydroxy-1-(3-phenylbutanoyl)piperidin-4-yl)methyl)-6-isopropylpyrimidin-4(3H)-one]",
< 0.25,"Cn1nc2c(=O)n(CC3(O)CCN(C(=O)C[C@H](c4ccccc4)C(F)(F)F)CC3)cnc2c1-c1ccc(CN)c(F)c1 [Example 82, (R)-3-(4-(Aminomethyl)-3-fluorophenyl)-6-((4-hydroxy-1-(4,4,4-trifluoro-3-phenylbutanoyl)piperidin-4-yl)methyl)-2-methyl-2H-pyrazolo[4,3-d]pyrimidin-7(6H)-one]",
< 0.25,"CNCc1ccc(-c2c3ncn(CC4(O)CCN(C(=O)C[C@H](c5ccccc5)C(F)(F)F)CC4)c(=O)c3nn2C)cc1 [Example 83, (R)-6-((4-Hydroxy-1-(4,4,4-trifluoro-3-phenylbutanoyl)piperidin-4-yl)methyl)-2-methyl-3-(4-((methylamino)methyl)phenyl)-2H-pyrazolo[4,3-d]pyrimidin-7(6H)-one]",
1 to 200,"Cn1nc2c(=O)n(CC3(O)CCN(C(=O)C[C@H](c4cc(F)cc(F)c4)C(F)(F)F)CC3)cnc2c1-c1ccc(CN)cc1 [Example 84, (R)-3-(4-(Aminomethyl)phenyl)-6-((1-(3-(3,5-difluorophenyl)-4,4,4-trifluorobutanoyl)-4-hydroxypiperidin-4-yl)methyl)-2-methyl-2H-pyrazolo[4,3-d]pyrimidin-7(6H)-one]",
< 0.25,"Cn1nc2c(=O)n(CC3(O)CCN(C(=O)C[C@H](c4ccc(F)cc4)C(F)(F)F)CC3)cnc2c1-c1ccc(CN)cc1 [Example 85, (R)-3-(4-(Aminomethyl)phenyl)-6-((4-hydroxy-1-(4,4,4-trifluoro-3-(4-fluorophenyl)butanoyl)piperidin-4-yl)methyl)-2-methyl-2H-pyrazolo[4,3-d]pyrimidin-7(6H)-one]",
,"C[C@H](CC(=O)N1CCC(O)(Cn2cnc(NCCN3Cc4cccc(F)c4C3)cc2=O)CC1)c1ccccc1 [Example 86, (R)-6-((2-(4-Fluoroisoindolin-2-yl)ethyl)amino)-3-((4-hydroxy-1-(3-phenylbutanoyl)piperidin-4-yl)methyl)pyrimidin-4(3H)-one, Formic Acid]",IC50 [2]: 0.25 to 0.999 µM
< 0.25,"Cn1nc2c(=O)n(CC3(O)CCN(C(=O)C[C@H](c4ccccc4)C(F)(F)F)CC3)cnc2c1-c1ccc(CCN)cc1 [Example 87, (R)-3-(4-(2-Aminoethyl)phenyl)-6-((4-hydroxy-1-(4,4,4-trifluoro-3-phenylbutanoyl)piperidin-4-yl)methyl)-2-methyl-2H-pyrazolo[4,3-d]pyrimidin-7(6H)-one]",
< 0.25,"Cn1nc2c(=O)n(CC3(O)CCN(C(=O)C[C@H](c4ccccc4)C(F)(F)F)CC3)cnc2c1-c1ccc(C2(N)CCC2)cc1 [Example 88, (R)-3-(4-(1-Aminocyclobutyl)phenyl)-6-((4-hydroxy-1-(4,4,4-trifluoro-3-phenylbutanoyl)piperidin-4-yl)methyl)-2-methyl-2H-pyrazolo[4,3-d]pyrimidin-7(6H)-one]",
,"O=C(C[C@H](c1ccccc1)C(F)F)N1CCC(O)(Cn2cnc(NCCN3CCCC3)cc2=O)CC1 [Example 89, (R)-3-((1-(4,4-Difluoro-3-phenylbutanoyl)-4-hydroxypiperidin-4-yl)methyl)-6-((2-(pyrrolidin-1-yl)ethyl)amino)pyrimidin-4(3H)-one, Formic Acid]",IC50 [2]: 0.25 to 0.999 µM
1 to 200,"CS(=O)(=O)c1nc2ncn(CC3(O)CCN(C(=O)CCc4ccccc4)CC3)c(=O)c2s1 [Example 92, 6-((4-Hydroxy-1-(3-phenylpropanol)piperidin-4-yl)methyl)-2-(methylsulfonyl)thiazolo[4,5-d]pyrimidin-7(6H)-one]",
1 to 200,"CNc1nc2ncn(CC3(O)CCN(C(=O)CCc4ccccc4)CC3)c(=O)c2s1 [Example 93, 6-((4-Hydroxy-1-(3-phenylpropanoyl)piperidin-4-yl)methyl)-2-(methylamino)thiazolo[4,5-d]pyrimidin-7(6H)-one]",
1 to 200,"Cn1nc2c(=O)n(CC3(O)CCN(C(=O)CCc4ccccc4)CC3)cnc2c1C(F)(F)F [Example 95, 6-((4-Hydroxy-1-(3-phenylpropanoyl)piperidin-4-yl)methyl)-2-methyl-3-(trifluoromethyl)-2H-pyrazolo[4,3-d]pyrimidin-7(6H)-one]",
1 to 200,"C[C@H](CC(=O)N1CCC(O)(Cn2cnc3c(nc(C(F)(F)F)n3C)c2=O)CC1)c1ccccc1 [Example 96, (R)-1-((4-Hydroxy-1-(3-phenylbutanoyl)piperidin-4-yl)methyl)-9-methyl-8-(trifluoromethyl)-1H-purin-6(9H)-one]",
1 to 200,"C[C@H](CC(=O)N1CCC(O)(Cn2cnc(N3CCOCC3)cc2=O)CC1)c1ccccc1 [Example 100, (R)-3-((4-Hydroxy-1-(3-phenylbutanoyl)piperidin-4-yl)methyl)-6-morpholinopyrimidin-4(3H)-one]",
1 to 200,"C[C@H](CC(=O)N1CCC(O)(C(O)c2cnc3ccccn3c2=O)CC1)c1ccccc1 (stereo partly drawn) [Example 101, 3-(Hydroxy(4-hydroxy-1-((R)-3-phenylbutanoyl)piperidin-4-yl)methyl)-4H-pyrido[1,2-a]pyrimidin-4-one]",
1 to 200,C[C@H](CC(=O)N1CCC(O)(Cn2cnc(-c3cncnc3)cc2=O)CC1)c1ccccc1 [Example 102],
1 to 200,"C[C@H](CC(=O)N1CCC(O)(Cn2cnc(NCCO)cc2=O)CC1)c1ccccc1 [Example 103, (R)-3-((4-Hydroxy-1-(3-phenylbutanoyl)piperidin-4-yl)methyl)-6-((2-hydroxyethyl)amino)pyrimidin-4(3H)-one]",
1 to 200,"C[C@H](CC(=O)N1CCC(O)(C(O)c2cnc3c(-c4ccccc4)cccn3c2=O)CC1)c1ccccc1 (stereo partly drawn) [Example 105, 3-(Hydroxy(4-hydroxy-1-((R)-3-phenylbutanoyl)piperidin-4-yl)methyl)-9-phenyl-4H-pyrido[1,2-a]pyrimidin-4-one]",
,"C[C@H](CC(=O)N1CCC(O)(Cn2cnc3c(-c4cccc(CN5CCOCC5)c4)n(C)nc3c2=O)CC1)c1ccccc1 [Example 108, (R)-6-((4-Hydroxy-1-(3-phenylbutanoyl)piperidin-4-yl)methyl)-2-methyl-3-(3-(morpholinomethyl)phenyl)-2H-pyrazolo[4,3-d]pyrimidin-7(6H)-one]",IC50: 0.25 to 0.999 µM
0.25 to 0.999,"C[C@H](CC(=O)N1CCC(O)(Cn2cnc(N[C@@H]3CCNC3)cc2=O)CC1)c1ccccc1 [Example 110, 3-((4-Hydroxy-1-((R)-3-phenylbutanoyl)piperidin-4-yl)methyl)-6-(((R)-pyrrolidin-3-yl)amino)pyrimidin-4(3H)-one]",

# — patent US10766903B2 (ALMAC DISCOVERY LIMITED, priority 2016, dated 2020)
